Source: patent publication US12616192B2, “Compositions and methods for preserving or increasing platelet function” (Washington University, priority 2021, dated 2026)
Read-outs that look alike come from different tables or passages of the source.

Experiments:
[1] = system: platelet concentrates (CS-PLT); experiment: occlusive clot formation in a collagen-coated stenotic microfluidic chamber (microfluidic model of occlusion); assay type: cell-based; conditions: for time to occlude the microfluidic channel versus non-supplemented CS-PLT: 500 μM taurine at the beginning of storage
Procedure: Next, the ability of the platelet concentrates to form an occlusive clot against an arterial pressure head in a stenotic microfluidic chamber coated with collagen was analyzed (FIG. 2). The important variable/metric extracted from this platelet function is the occlusion area under the curve, or OAUC; a larger OAUC implies faster and more robust occlusion, and thus improved hemostatic platelet function.
To determine if this was the case, experiments were performed to supplement CS-PLT with taurine during storage, with the hypothesis that the supplemental (or “extra”) taurine would lead to inhibition of aggregation, as similar to the aforementioned reports from the literature. Next, the platelet concentrates were supplemented at the beginning of storage with 500 μM taurine, and assayed for alterations in function using a microfluidic model of occlusion.

platelets [2] = conditions: cited from earlier work
platelets [3] = conditions: rats fed taurine; cited from earlier work
platelets [4] = conditions: in vitro taurine addition; cited from earlier work

NCCS(=O)(=O)O [taurine, 2-aminoethanesulfonic acid]
platelet aggregation (shift of occlusion curves, OAUC) ([1]; CS-PLT supplemented with 500 μM taurine at the beginning of storage (TaurSTORAGE)): increased platelet aggregation
time to occlude the microfluidic channel versus non-supplemented CS-PLT ([1]; D7 CS-PLT): half of the time
time to occlude the microfluidic channel versus non-supplemented CS-PLT ([1]; D14 CS-PLT): half of the time
occlusion curve phenotype ([1]; D14 non-supplemented CS-PLT, exogenous taurine 500 μM added just prior to assessment (TaurASSAY)): middle phenotype
hemostatic function under physiologically relevant flow ([1]; taurine supplementation during platelet concentrate storage): robustly increases hemostatic function
ex vivo platelet aggregation (platelets [2]; 1989 study, taurine supplementation in humans): reduced aggregation
ex vivo platelet aggregation (platelets [2]; 2010 study, healthy human donors that drank taurine-containing solutions): increased ex vivo aggregation
ex vivo platelet aggregation (platelets [3]): reduced platelet aggregation
platelet aggregation (platelets [4]): inhibit platelet aggregation
